The data set relates to L929 cells. As to the kind of experiment: Cytotoxicity of the cured adhesive in accordance with ISO 10993-5:2009. The format is cell-based. Particulars: adhesive of Prepolymer C cured with equivalent amount of curing agent. Here is the method: Prepolymer C was reacted with an equivalent amount of 3. The cytotoxicity was measured in accordance with ISO 10993-5:2009 using L929 cells.
4 g of prepolymer C were stirred thoroughly in a beaker with an equivalent amount of (5) and cured. The adhesive was measured in accordance with ISO 10993-5:2009 using L929 cells.

On to `CCOC(=O)CC(NCCCC(CCCNC(CC(=O)OCC)C(=O)OCC)CCCNC(CC(=O)OCC)C(=O)OCC)C(=O)OCC` (stereo not drawn) [Compound 3, Tetraethyl 2,2′-(4-(3-(1,4-diethoxy-1,4-dioxobutan-2-ylamino)propyl)heptane-1,7-diyl)bis-(azandiyl)disuccinate], for which the cell viability entry was “no reduction in cell viability” and the cytotoxicity category entry is recorded as “not to be categorised as cytotoxic”. Regarding `CCOC(=O)CC(NCCCCC(CCCNC(CC(=O)OCC)C(=O)OCC)CNC(CC(=O)OCC)C(=O)OCC)C(=O)OCC` (stereo not drawn) [Compound 5, Diethyl 2-[(8-[(1,4-diethoxy-1,4-dioxobutan-2-yl)amino]-4-{[(1,4-diethoxy-1,4-dioxobutan-2-yl)-amino]methyl}octyl)amino]butanedioate, reference compound], the cytotoxicity category entry is reported as “high cyctotoxicity”.

The values are drawn from US20130317134A1, “TISSUE ADHESIVE BASED ON TRIFUNCTIONAL ASPARTATES” (Bayer Intellectual Property GmbH Creative Campus Monheim, priority 2011, published 2013).
